{
  "source": "paper PMC8141582",
  "about": "“Synergistic Effect of Statins and Abiraterone Acetate on the Growth Inhibition of Neuroblastoma via Targeting Androgen Receptor” (Frontiers in Oncology, 2021)",
  "key": {"N2a cells": {"test_system": "N2a cells", "experiment": "MTT cell viability assay, N2a", "type": "cell-based, mouse", "conditions": "Mus musculus", "protocol": "(§1) N2a, SH-SY5Y, SK-N-BE (2), 10A, HUVEC, HL7702 cells were plated in 96-well plates at 8,000 cells/well, respectively, in complete media in triplicate wells for each dose and cultured for 18 h. The neuroblastoma cell lines, N2a, SH-SY5Y, and SK-N-BE (2), and non-cancer cell lines, 10A, HUVEC, and HL7702, were treated with simvastatin and fluvastatin in a range of doses from 0 to 20 μM and with AA from 0 to 30 μM; N2a, SH-SY5Y SK-N-BE (2), were treated with rosuvastatin in a range of doses from 0 to 100 μM for 72 h. Statins dissolved in DMSO and AA dissolved in ethanol. After 72 h treatment, the medium was added 0.5 mg/ml MTT reagent and incubated at 37°C for 4 h. Subsequently, the supernatant was aspirated, and cells were lysed in 150 µl DMSO, then shaken 10 min at 37°C. The optical density (OD) was measured at 570 and 630 nm using a plate reader."}, "[1]": {"test_system": "Panc-1 cells from the primary tumors", "set-up": "method as in Supplement [9]; key: Positive: Simvastatin alone inhibited the progression of cancer; Negative: Simvastatin alone could not inhibit the progression of cancer", "conditions": "Pancreatic Ductal Adenocarcinoma, 20.0 mg/kg/day, i.p.; ref Supplement [9]; cited from earlier work"}, "SK-N-BE (2) cells": {"test_system": "SK-N-BE (2) cells", "experiment": "MTT cell viability assay, SK-N-BE (2)", "type": "cell-based", "conditions": "Homo sapiens, SKNBE2, NB cell line, 72 h", "protocol": "as §1"}, "KHOS or NP cells": {"test_system": "KHOS or NP cells", "set-up": "method as in Supplement [24]; key: Positive: Simvastatin alone inhibited the progression of cancer; Negative: Simvastatin alone could not inhibit the progression of cancer", "conditions": "Osteosarcoma, 10.0 mg/kg, route unknown; ref Supplement [24]; cited from earlier work"}, "[2]": {"test_system": "specimens of T-ALL patients", "set-up": "method as in Supplement [25]; key: Positive: Simvastatin alone inhibited the progression of cancer; Negative: Simvastatin alone could not inhibit the progression of cancer", "conditions": "Pediatric Acute Lymphoblastic Leukemia, 20.0 mg/kg/day, oral; ref Supplement [25]; cited from earlier work"}, "PC-3 cells": {"test_system": "PC-3 cells", "set-up": "key to Results (simvastatin alone): Positive: Simvastatin alone inhibited the progression of cancer; Negative: Simvastatin alone could not inhibit the progression of cancer", "conditions": "Prostate Cancer, i.p., cited from earlier work"}, "SH-SY5Y cells": {"test_system": "SH-SY5Y cells", "experiment": "MTT cell viability assay, SH-SY5Y", "type": "cell-based", "conditions": "Homo sapiens, NB cell line, 72 h", "protocol": "as §1"}, "[3]": {"test_system": "HCT116 p53 +/+ or p53 -/- cells", "set-up": "method as in Supplement [12]; key: Positive: Simvastatin alone inhibited the progression of cancer; Negative: Simvastatin alone could not inhibit the progression of cancer", "conditions": "Colorectal Cancer, 20.0 mg/kg/day, i.p.; ref Supplement [12]; cited from earlier work"}, "CAPAN-2 cells": {"test_system": "CAPAN-2 cells", "set-up": "method as in Supplement [8]; key: Positive: Simvastatin alone inhibited the progression of cancer; Negative: Simvastatin alone could not inhibit the progression of cancer", "conditions": "Pancreatic Cancer, 0.5 mg/kg/day, oral; ref Supplement [8]; cited from earlier work"}, "SNU-5 cells": {"test_system": "SNU-5 cells", "set-up": "method as in Supplement [6]; key: Positive: Simvastatin alone inhibited the progression of cancer; Negative: Simvastatin alone could not inhibit the progression of cancer", "conditions": "Gastric Cancer, 2.1 mg/kg/day, i.p.; ref Supplement [6]; cited from earlier work"}, "Caki-1-staR cells": {"test_system": "Caki-1-staR cells", "set-up": "method as in Supplement [13]; key: Positive: Simvastatin alone inhibited the progression of cancer; Negative: Simvastatin alone could not inhibit the progression of cancer", "conditions": "Renal Cancer, 6.7 mg/kg/day, i.p.; ref Supplement [13]; cited from earlier work"}, "HL7702 cells": {"test_system": "HL7702 cells", "experiment": "MTT cell viability assay, HL7702", "type": "cell-based", "conditions": "Homo sapiens, L02, normal cell line, 72 h", "protocol": "Statins dissolved in DMSO and AA dissolved in ethanol. After 72 h treatment, the medium was added 0.5 mg/ml MTT reagent and incubated at 37°C for 4 h. Subsequently, the supernatant was aspirated, and cells were lysed in 150 µl DMSO, then shaken 10 min at 37°C. The optical density (OD) was measured at 570 and 630 nm using a plate reader."}},
  "note": "Where two headings read alike, the source gives them in different places.",
  "data": [
    {"smiles": "CCC(C)(C)C(=O)O[C@H]1C[C@@H](C)C=C2C=C[C@H](C)[C@H](CC[C@@H]3C[C@@H](O)CC(=O)O3)[C@H]21", "note": "[Simvastatin]", "values": [
      {"measurement": "IC50", "setting": "N2a cells; N2a, NB cell line, MTT, 72 h", "value": 6.07, "unit": "µM"},
      {"measurement": "inhibition at 1.5 µM", "setting": "N2a cells; N2a cells, 1.5 μM simvastatin, read-out: inhibition rate", "value": "~10", "unit": "%"},
      {"measurement": "Results (simvastatin alone)", "setting": "[1]", "value": "Positive"},
      {"measurement": "IC50", "setting": "SK-N-BE (2) cells", "value": 10.5, "unit": "µM"},
      {"measurement": "Results (simvastatin alone)", "setting": "KHOS or NP cells", "value": "Positive"},
      {"measurement": "Results (simvastatin alone)", "setting": "[2]", "value": "Negative"},
      {"measurement": "Results (simvastatin alone)", "setting": "PC-3 cells; 2.0 mg/kg/day or 4.0 mg/kg/day, ref Supplement [18]", "value": "Positive"},
      {"measurement": "Results (simvastatin alone)", "setting": "PC-3 cells; 2.1 mg/kg/day or 21.0 mg/kg/day, ref Supplement [19]", "value": "Positive"},
      {"measurement": "Results (simvastatin alone)", "setting": "PC-3 cells; 4.0 mg/kg/day, ref Supplement [17]", "value": "Positive"},
      {"measurement": "IC50", "setting": "SH-SY5Y cells", "value": 9.69, "unit": "µM"},
      {"measurement": "Results (simvastatin alone)", "setting": "[3]", "value": "Positive"},
      {"measurement": "Results (simvastatin alone)", "setting": "CAPAN-2 cells", "value": "Positive"},
      {"measurement": "Results (simvastatin alone)", "setting": "SNU-5 cells", "value": "Positive"},
      {"measurement": "Results (simvastatin alone)", "setting": "Caki-1-staR cells", "value": "Negative"},
      {"measurement": "IC50", "setting": "HL7702 cells", "value": 20.6, "unit": "µM"}
    ]}
  ]
}
